Reference: PubChem BioAssay (NCI)
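At the GI50, growth is halved. The concentration for full growth arrest is given as TGI.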

Columns and labels:
Test in all cases: growth of human tumour cells (NCI), 384-well format
SN12C renal = test system: SN12C renal
MDA-MB-231 breast = test system: MDA-MB-231 breast
UACC-62 melanoma = test system: UACC-62 melanoma
CAKI-1 renal = test system: CAKI-1 renal
NCI/ADR-RES ovarian = test system: NCI/ADR-RES ovarian
SK-MEL-5 melanoma = test system: SK-MEL-5 melanoma
OVCAR-4 ovarian = test system: OVCAR-4 ovarian
M14 melanoma = test system: M14 melanoma
MOLT-4 leukemia = test system: MOLT-4 leukemia
OVCAR-8 ovarian = test system: OVCAR-8 ovarian
BT-549 breast = test system: BT-549 breast
PC-3 prostate = test system: PC-3 prostate
SNB-75 CNS = test system: SNB-75 CNS
OVCAR-5 ovarian = test system: OVCAR-5 ovarian
TK-10 renal = test system: TK-10 renal
U251 glioblastoma = test system: U251 glioblastoma
HS 578T breast = test system: HS 578T breast
SW-620 colon = test system: SW-620 colon
ACHN renal = test system: ACHN renal
HL-60(TB) leukemia = test system: HL-60(TB) leukemia
A549 NSCLC = test system: A549 NSCLC
MDA-MB-468 breast = test system: MDA-MB-468 breast
SNB-19 CNS = test system: SNB-19 CNS
NCI-H23 lung = test system: NCI-H23 lung
LOX IMVI melanoma = test system: LOX IMVI melanoma
SK-MEL-2 melanoma = test system: SK-MEL-2 melanoma
T-47D breast = test system: T-47D breast
HOP-62 NSCLC = test system: HOP-62 NSCLC
RXF 393 renal = test system: RXF 393 renal
HOP-92 NSCLC = test system: HOP-92 NSCLC
NCI-H226 lung = test system: NCI-H226 lung
SF-539 CNS = test system: SF-539 CNS
COLO 205 colon = test system: COLO 205 colon
EKVX NSCLC = test system: EKVX NSCLC
RPMI-8226 leukemia = test system: RPMI-8226 leukemia
SF-295 CNS = test system: SF-295 CNS
K-562 leukemia = test system: K-562 leukemia
UO-31 renal = test system: UO-31 renal
NCI-H322M lung = test system: NCI-H322M lung
SK-OV-3 ovarian = test system: SK-OV-3 ovarian
OVCAR-3 ovarian = test system: OVCAR-3 ovarian
HCT-15 colon = test system: HCT-15 colon
HT29 colon = test system: HT29 colon
CCRF-CEM leukemia = test system: CCRF-CEM leukemia
MCF7 breast = test system: MCF7 breast
NCI-H522 lung = test system: NCI-H522 lung
A498 renal = test system: A498 renal

Q: For `CC(=O)OC1C(C)OC(Oc2c(-c3ccc(O)cc3)oc3cc(O)cc(O)c3c2=O)C(O)C1OC(C)=O` (centres undefined), which GI50 (SN12C renal) is on record?
A: The GI50 was 32.2 µM.

Q: And the TGI (SN12C renal)?
A: Its TGI is > 100 µM.

Q: What about the GI50 (MDA-MB-231 breast) of the same compound?
A: The GI50 was 25.7 µM.

Q: What about the TGI (MDA-MB-231 breast) of the same compound?
A: Its TGI is 74.1 µM.

Q: What about the GI50 (UACC-62 melanoma) of the same compound?
A: The GI50 was 23.1 µM.

Q: What about the TGI (UACC-62 melanoma) of the same compound?
A: The TGI was 63.6 µM.

Q: And the GI50 (CAKI-1 renal)?
A: The GI50 was > 100 µM.

Q: And the TGI (CAKI-1 renal)?
A: Its TGI is > 100 µM.

Q: What about the GI50 (NCI/ADR-RES ovarian) of the same compound?
A: Its GI50 is > 100 µM.

Q: What about the TGI (NCI/ADR-RES ovarian) of the same compound?
A: The TGI was > 100 µM.

Q: What about the GI50 (SK-MEL-5 melanoma) of the same compound?
A: Its GI50 is 32.5 µM.

Q: What about the TGI (SK-MEL-5 melanoma) of the same compound?
A: The TGI was > 100 µM.

Q: What about the GI50 (OVCAR-4 ovarian) of the same compound?
A: Its GI50 is 36.4 µM.

Q: What about the TGI (OVCAR-4 ovarian) of the same compound?
A: The TGI was > 100 µM.

Q: And the GI50 (M14 melanoma)?
A: Its GI50 is 39.8 µM.

Q: And the TGI (M14 melanoma)?
A: The TGI was > 100 µM.

Q: What about the GI50 (MOLT-4 leukemia) of the same compound?
A: The GI50 was 17.4 µM.

Q: What about the TGI (MOLT-4 leukemia) of the same compound?
A: The TGI was 31.9 µM.

Q: What about the GI50 (OVCAR-8 ovarian) of the same compound?
A: The GI50 was 31.4 µM.

Q: What about the TGI (OVCAR-8 ovarian) of the same compound?
A: The TGI was > 100 µM.

Q: What about the GI50 (BT-549 breast) of the same compound?
A: Its GI50 is 19.4 µM.

Q: And the TGI (BT-549 breast)?
A: Its TGI is 44.7 µM.

Q: What about the GI50 (PC-3 prostate) of the same compound?
A: Its GI50 is 38.9 µM.

Q: What about the TGI (PC-3 prostate) of the same compound?
A: Its TGI is > 100 µM.

Q: And the GI50 (SNB-75 CNS)?
A: Its GI50 is 32 µM.

Q: And the TGI (SNB-75 CNS)?
A: Its TGI is 97 µM.

Q: What about the GI50 (OVCAR-5 ovarian) of the same compound?
A: Its GI50 is > 100 µM.

Q: And the TGI (OVCAR-5 ovarian)?
A: The TGI was > 100 µM.

Q: What about the GI50 (TK-10 renal) of the same compound?
A: Its GI50 is > 100 µM.

Q: What about the TGI (TK-10 renal) of the same compound?
A: Its TGI is > 100 µM.

Q: And the GI50 (U251 glioblastoma)?
A: The GI50 was 46.4 µM.

Q: And the TGI (U251 glioblastoma)?
A: The TGI was > 100 µM.

Q: What about the GI50 (HS 578T breast) of the same compound?
A: The GI50 was 21.5 µM.

Q: And the TGI (HS 578T breast)?
A: The TGI was 62.4 µM.

Q: And the GI50 (SW-620 colon)?
A: Its GI50 is 59.1 µM.

Q: What about the TGI (SW-620 colon) of the same compound?
A: Its TGI is > 100 µM.

Q: What about the GI50 (ACHN renal) of the same compound?
A: The GI50 was 74.5 µM.

Q: And the TGI (ACHN renal)?
A: Its TGI is > 100 µM.

Q: What about the GI50 (HL-60(TB) leukemia) of the same compound?
A: Its GI50 is 17.5 µM.

Q: What about the TGI (HL-60(TB) leukemia) of the same compound?
A: Its TGI is 31.5 µM.

Q: And the GI50 (A549 NSCLC)?
A: Its GI50 is > 100 µM.

Q: And the TGI (A549 NSCLC)?
A: The TGI was > 100 µM.

Q: And the GI50 (MDA-MB-468 breast)?
A: Its GI50 is 19.6 µM.

Q: And the TGI (MDA-MB-468 breast)?
A: Its TGI is 38.7 µM.

Q: And the GI50 (SNB-19 CNS)?
A: Its GI50 is 50.4 µM.

Q: What about the TGI (SNB-19 CNS) of the same compound?
A: Its TGI is > 100 µM.

Q: And the GI50 (NCI-H23 lung)?
A: Its GI50 is 28.8 µM.

Q: And the TGI (NCI-H23 lung)?
A: Its TGI is 82.3 µM.

Q: What about the GI50 (LOX IMVI melanoma) of the same compound?
A: The GI50 was 31.6 µM.

Q: And the TGI (LOX IMVI melanoma)?
A: The TGI was > 100 µM.

Q: And the GI50 (SK-MEL-2 melanoma)?
A: The GI50 was 30 µM.

Q: What about the TGI (SK-MEL-2 melanoma) of the same compound?
A: Its TGI is 73.8 µM.

Q: And the GI50 (T-47D breast)?
A: Its GI50 is 19.5 µM.

Q: What about the TGI (T-47D breast) of the same compound?
A: The TGI was 47.7 µM.

Q: And the GI50 (HOP-62 NSCLC)?
A: Its GI50 is 20.8 µM.

Q: What about the TGI (HOP-62 NSCLC) of the same compound?
A: Its TGI is 49 µM.

Q: And the GI50 (RXF 393 renal)?
A: The GI50 was 23 µM.

Q: What about the TGI (RXF 393 renal) of the same compound?
A: The TGI was 65.9 µM.

Q: What about the GI50 (HOP-92 NSCLC) of the same compound?
A: The GI50 was 28.6 µM.

Q: And the TGI (HOP-92 NSCLC)?
A: The TGI was 76.8 µM.

Q: And the GI50 (NCI-H226 lung)?
A: The GI50 was 34.2 µM.

Q: What about the TGI (NCI-H226 lung) of the same compound?
A: The TGI was > 100 µM.

Q: What about the GI50 (SF-539 CNS) of the same compound?
A: Its GI50 is > 100 µM.

Q: And the TGI (SF-539 CNS)?
A: The TGI was > 100 µM.

Q: What about the GI50 (COLO 205 colon) of the same compound?
A: The GI50 was 93.1 µM.

Q: What about the TGI (COLO 205 colon) of the same compound?
A: Its TGI is > 100 µM.

Q: What about the GI50 (EKVX NSCLC) of the same compound?
A: Its GI50 is 83.8 µM.

Q: What about the TGI (EKVX NSCLC) of the same compound?
A: The TGI was > 100 µM.

Q: What about the GI50 (RPMI-8226 leukemia) of the same compound?
A: Its GI50 is 15.1 µM.

Q: And the TGI (RPMI-8226 leukemia)?
A: Its TGI is 30.8 µM.

Q: What about the GI50 (SF-295 CNS) of the same compound?
A: The GI50 was 33.9 µM.

Q: What about the TGI (SF-295 CNS) of the same compound?
A: The TGI was > 100 µM.

Q: What about the GI50 (K-562 leukemia) of the same compound?
A: Its GI50 is 34.4 µM.

Q: What about the TGI (K-562 leukemia) of the same compound?
A: The TGI was > 100 µM.

Q: And the GI50 (UO-31 renal)?
A: The GI50 was > 100 µM.

Q: And the TGI (UO-31 renal)?
A: Its TGI is > 100 µM.

Q: What about the GI50 (NCI-H322M lung) of the same compound?
A: Its GI50 is 46.9 µM.

Q: And the TGI (NCI-H322M lung)?
A: Its TGI is > 100 µM.

Q: What about the GI50 (SK-OV-3 ovarian) of the same compound?
A: Its GI50 is 46.3 µM.

Q: And the TGI (SK-OV-3 ovarian)?
A: The TGI was > 100 µM.

Q: What about the GI50 (OVCAR-3 ovarian) of the same compound?
A: Its GI50 is 23.3 µM.

Q: What about the TGI (OVCAR-3 ovarian) of the same compound?
A: Its TGI is 57.7 µM.

Q: And the GI50 (HCT-15 colon)?
A: Its GI50 is 87.7 µM.

Q: What about the TGI (HCT-15 colon) of the same compound?
A: Its TGI is > 100 µM.

Q: And the GI50 (HT29 colon)?
A: Its GI50 is 63.6 µM.

Q: What about the TGI (HT29 colon) of the same compound?
A: The TGI was > 100 µM.

Q: What about the GI50 (CCRF-CEM leukemia) of the same compound?
A: The GI50 was 20.2 µM.

Q: And the TGI (CCRF-CEM leukemia)?
A: Its TGI is 37.6 µM.

Q: And the GI50 (MCF7 breast)?
A: Its GI50 is 37.2 µM.

Q: What about the TGI (MCF7 breast) of the same compound?
A: Its TGI is > 100 µM.

Q: What about the GI50 (NCI-H522 lung) of the same compound?
A: Its GI50 is 20.5 µM.

Q: And the TGI (NCI-H522 lung)?
A: Its TGI is 46.2 µM.

Q: What about the GI50 (A498 renal) of the same compound?
A: The GI50 was 92.1 µM.

Q: And the TGI (A498 renal)?
A: Its TGI is > 100 µM.
